From patent US9585380B2, “SSAT mRNA translation repression and activation” (TEMPLE UNIVERSITY—Of The Commonwealth System of Higher …, priority 2011, dated 2017) come the findings set out here.

Assay [1] concerns SSAT translation. Nature of the assay: Reporter system: 5′ UTR lacking uORFs + SSAT coding sequence-luciferase chimeric construct in HEK293T cells. Type of assay: cell-based, human. The conditions noted are these: wild-type SSAT-luciferase construct, luciferase 16 hours after addition, compared to untreated. The method, then:
A chimeric construct (FIG. 15A) comprising a fragment of the 5′ UTR of SSAT lacking the uORF's (see FIG. 7), the SSAT coding sequence (see FIG. 8B), and the luciferase coding sequence was prepared. The SSAT coding sequence is linked in-frame to the luciferase coding sequence. The construct was prepared using appropriate primers and template nucleic acid, and conventional PCR methods. The construct was cloned into pLEX-MCS. To evaluate the effect of small molecules on translation of the chimeric construct, the chimeric construct was transiently transfected into HEK293T cells. The small molecule to be tested was added 24 hours after transfection of the vector. Luciferase activity was evaluated 16 hours after the addition of the small molecule using the ONE-Glo™ Luciferase Assay System (Promega, Madison, Wis.). The luminescence intensity was determined using a GloMax® luminometer (Promega).
In view of the discovery of the contribution of uORF's on translational repression of SSAT mRNA, a reporter system was developed to detect pharmacophores that can modulate SSAT translation. The reporter system is a chimeric construct comprising a 5′ UTR lacking the uORF's and the SSAT coding sequence linked in-frame to the luciferase coding sequence. (FIG. 15A). The 5′ UTR comprises 66 nucleotides of the native 5′UTR immediately upstream of the starting AUG codon.
Release of translational repression of the chimeric construct was tested in the presence of several small molecules. Release of translational repression was assessed by detection of luciferase activity. The small molecules tested were: DENSPM and three uncharacterized polyamine analogs designated polyamine analog 1; polyamine analog 2; and polyamine analog 3. Cisplatin and 5-FU were tested as negative controls.

In assay [2] the test system is SSAT translation. The assay can be described thus: DENSPM dose response curve with mutant 6 chimeric construct. The assay is classed as cell-based, human. The settings on record: mutant 6 construct, DENSPM 0.08 μM to 40 μM, HEK293T. Here is the method: The chimeric construct to be tested was transiently transfected into HEK293T cells. Twenty-four hours after transfection of the vector, DENSPM was added to the desired final concentration (ranged from 0.08 micromolar to 40 micromolar). Luciferase activity was evaluated 16 hours after the addition of DENSPM using the ONE-Glo™ Luciferase Assay System. The luminescence intensity was determined using a GloMax® luminometer (Promega). The experiment was run in triplicates to obtain error bars and evaluate reproducibility.
A dose response experiment was performed using the mutant 6 chimeric construct. Specifically, the stimulation of mutant 6 translation by ten different concentrations of DENSPM was assayed. The DENSPM concentrations ranged from 0.08 micromolar (μM) to 40 μM. The dose response curve is depicted in FIG. 20.

A further assay relates to nucleolin. The settings on record: HEK293T exposed to 2 mM spermine for 12 hours versus controls.
Assay [3] has as its system SSAT translation.

Description for nucleolin: In addition, a sample of RNA-interacting proteins obtained from a Sepharose-streptomycin-chimeric RNA column described above was subjected to the same 2DE separation. The sample was initially concentrated to 30 μL using a Nanosep 3000 (Pall Corp) and dialyzed with 0.1×PBS for 12 h using a Slide-A-Lyzer 7K mini unit (Pierce Biotech). After separation by 2DE, the proteins were transferred to a nitrocellulose membrane using a Mini Trans Blot System (Biorad) and were Western blotted using anti-nucleolin monoclonal antibody.

Turning to `CCNCCCNCCCNCCCNCC` [DENSPM, N^1-N^11 diethylnorspermine], in the assay on SSAT translation [1], the “Release of translational repression of the chimeric construct (luciferase activity)” value (“Release” for short) is “relieved”. Moreover, in the assay with SSAT translation [2], the “Dose dependency of stimulation of translation of SSAT mRNA having CGC encoding Arg142” value was “dose dependency over at least two orders of magnitude”. With `O=c1[nH]cc(F)c(=O)[nH]1` [Mutant 5-FU, 5-FU], in the assay with SSAT translation [1], the “Release” value is given as “about the same as in the absence of a small molecule”. For `N.N.[Cl][Pt][Cl]` [cisplatin, Cisplatin], in the assay on SSAT translation [1], the “Release” value was “about the same as in the absence of a small molecule”. As for `NCCCNCCCCNCCCN` [spermine], the “55 KDa nucleolin isoform (2D-PAGE Western blot)” value in the assay on nucleolin is “absent”. Besides, in the assay with SSAT translation [3] (constructs with or without uORFs, presence of spermine), the “SSAT expression (Western blot)” value is “stimulated expression”. Also, in the assay on SSAT translation [3] (exogenous spermine, HEK293T), the “Repression of eGFP expression by the SSAT stem loop (Loop eGFP, Western blot)” value was “partially reversed”.
